Assay results: patent US9957263B2, “Bromodomain inhibitors” (AbbVie Inc., priority 2013, dated 2018)

How the values were obtained:
BRD4 (BDI_K57-E168) = BRD4 (BDI_K57-E168) (Homo sapiens (Human), UniProt O60885); assay: TR-FRET bromodomain binding assay, BRD4 first bromodomain; details: His-tagged BD1, Alexa647-labeled probe 100 nM
Procedure, shortened: (§1)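 Read-out: TR-FRET ratio after 1 h at room temperature, normalized to controls and fitted for IC50, then converted to Ki. Reaction held 8 nM His-tagged domain, 1 nM Eu-anti-His antibody, Alexa647 probe (BDI 100 nM; BDII 30 nM) and test compound in 2% DMSO.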

BRD4 (BDII_E352-M457) = BRD4 (BDII_E352-M457) (Homo sapiens (Human), UniProt O60885); assay: TR-FRET bromodomain binding assay, BRD4 second bromodomain; details: His-tagged BD2, Alexa647-labeled probe 30 nM
Procedure, shortened: as §1

Ki (BRD4 (BDI_K57-E168)) [nM]	Ki (BRD4 (BDII_E352-M457)) [nM]	SMILES
883	28.5	CCNC(=O)c1cc2c(-c3cc(S(=O)(=O)CC)ccc3Oc3c(C)cccc3Cn3ccccc3=O)cn(C)c(=O)c2[nH]1 [Example 158, N-ethyl-4-[5-(ethylsulfonyl)-2-{2-methyl-6-[(2-oxopyridin-1(2H)-yl)methyl]phenoxy}phenyl]-6-methyl-7-oxo-6,7-dihydro-1H-pyrrolo[2,3-c]pyridine-2-carboxamide]
3.33	98.4	Cn1cc(-c2cc(S(C)(=O)=O)ccc2Oc2ccc(F)cc2F)c2cc(CN3CCN(C4CCOCC4)CC3)[nH]c2c1=O [Example 116, 4-[2-(2,4-difluorophenoxy)-5-(methylsulfonyl)phenyl]-6-methyl-2-{[4-(tetrahydro-2H-pyran-4-yl)piperazin-1-yl]methyl}-1,6-dihydro-7H-pyrrolo[2,3-c]pyridin-7-one]
10	1.8	CC(C)c1ccc(S(=O)(=O)Nc2cccc(Oc3ccc(S(C)(=O)=O)cc3-c3cn(C)c(=O)c4[nH]ccc34)c2)cc1 [Example 46, N-{3-[2-(6-methyl-7-oxo-6,7-dihydro-1H-pyrrolo[2,3-c]pyridin-4-yl)-4-(methylsulfonyl)phenoxy]phenyl}-4-(propan-2-yl)benzenesulfonamide]
19	9.1	CN(C)CCN1CCN(C(=O)c2cccc(Oc3ccc(S(C)(=O)=O)cc3-c3cn(C)c(=O)c4[nH]ccc34)c2)CC1 [Example 29, 4-{2-[3-({4-[2-(dimethylamino)ethyl]piperazin-1-yl}carbonyl)phenoxy]-5-(methylsulfonyl)phenyl}-6-methyl-1,6-dihydro-7H-pyrrolo[2,3-c]pyridin-7-one]
4.4	48	CCS(=O)(=O)c1ccc(OCC2CC2(F)F)c(-c2cn(C)c(=O)c3[nH]c(CN4CCN(c5cnccn5)CC4)cc23)c1 (centres unmarked) [Example 18, 4-{2-[(2,2-difluorocyclopropyl)methoxy]-5-(ethylsulfonyl)phenyl}-6-methyl-2-{[4-(pyrazin-2-yl)piperazin-1-yl]methyl}-1,6-dihydro-7H-pyrrolo[2,3-c]pyridin-7-one]
19	24	Cn1cc(-c2cc(S(C)(=O)=O)ccc2NC2CCN(C(=O)C3(C(N)=O)CC3)CC2)c2cc[nH]c2c1=O [Example 93, 1-[(4-{[2-(6-methyl-7-oxo-6,7-dihydro-1H-pyrrolo[2,3-c]pyridin-4-yl)-4-(methylsulfonyl)phenyl]amino}piperidin-1-yl)carbonyl]cyclopropanecarboxamide]
1510	6.69	CCNC(=O)c1cc2c(-c3cc(S(=O)(=O)CC)ccc3Oc3c(C)cccc3NCC3CC3)cn(C)c(=O)c2[nH]1 [Example 119, 4-[2-{2-[(cyclopropylmethyl)amino]-6-methylphenoxy}-5-(ethylsulfonyl)phenyl]-N-ethyl-6-methyl-7-oxo-6,7-dihydro-1H-pyrrolo[2,3-c]pyridine-2-carboxamide]
16	1.7	CCS(=O)(=O)Nc1cc(-c2cn(C)c(=O)c3[nH]ccc23)c(Oc2ccc(F)cc2F)cc1CN1CCN(C)CC1 [Example 5, N-{4-(2,4-difluorophenoxy)-5-(6-methyl-7-oxo-6,7-dihydro-1H-pyrrolo[2,3-c]pyridin-4-yl)-2-[(4-methylpiperazin-1-yl)methyl]phenyl}ethanesulfonamide]
807	8.7	CCNC(=O)c1cc2c(-c3cc(S(=O)(=O)CC)ccc3Oc3c(C)cccc3Cn3cccn3)cn(C)c(=O)c2[nH]1 [Example 145, N-ethyl-4-{5-(ethylsulfonyl)-2-[2-methyl-6-(1H-pyrazol-1-ylmethyl)phenoxy]phenyl}-6-methyl-7-oxo-6,7-dihydro-1H-pyrrolo[2,3-c]pyridine-2-carboxamide]

SMILES	Ki (BRD4 (BDI_K57-E168)) [nM]	Ki (BRD4 (BDII_E352-M457)) [nM]
Cn1cc(-c2cc(S(C)(=O)=O)ccc2N[C@H]2CC[C@H](NCc3ccc4ccccc4c3)CC2)c2cc[nH]c2c1=O [Example 110, 6-methyl-4-[5-(methylsulfonyl)-2-({trans-4-[(naphthalen-2-ylmethyl)amino]cyclohexyl}amino)phenyl]-1,6-dihydro-7H-pyrrolo[2,3-c]pyridin-7-one]	1.1	2.2
